US7335723B2, “Melanin-concentrating hormone antagonists” (priority 2001, dated 2008)
Where a SMILES comes first, the peptide text is derived from it. Bridges are numbered along the chain shown (N, C = ends). [ ]: non-standard residue; d: D form. The star is where a group is joined. Pentanoyl(5-guanidino) = NC(N)=NCCCCC(=O)*; dNle = CCCC[C@@H](N)C(=O)O; Nle = CCCC[C@H](N)C(=O)O; Ava = NCCCCC(=O)O

How the values were obtained:
human MCH-2R = human MCH-2R (Homo sapiens, UniProt Q969V1); assay: Aequorin bioluminescence functional assay, MCH-2R agonist activity; settings: for MCH-2R Agonist Activation %: 293-AEQ17 cells expressing human MCH-2R
rat MCH-1R [1] = target: T1, rat MCH-1R (Rattus norvegicus, UniProt P97639); assay: Antagonist assay, 293-AEQ17 cells expressing rat MCH-1R; type: cell-based; set-up: expressed in transfected cells; host or cells: 293-AEQ17 (aequorin-expressing HEK-293 reporter line); settings: for Kb: determined per Trends in Pharmacol. Sci. 14:237-239, 1993
Procedure: Cells were grown in DMEM (high glucose) supplemented with 10% FBS (Hyclone), 500 μg/ml G418, 200 μg/ml hygromycin and 25 mM HEPES in T75 flasks.
The assay itself involved charging apoaequorin with coelenterazine cp(Molecular Probes, C-14260) and was performed as follows:
1. Confluent T75 flasks are rinsed 1× with 12 ml Hams F12 medium+300 μM glutathione+0.1% FBS.
2. The cells were charged by adding 8 ml Hams F12+0.1% FBS+300 μM glutathione+10 μM coelenterazine, incubate at 37° C. for 1 hour.
4. ECB (6 ml) is added to the flask and the cells are dissociated with a rubber-tipped scraper, centrifuged for 5 minutes at 2500 rpm and the cell pellet resuspended in 5 ml ECB. The cells are counted and diluted to 5×10^5/ml.
Binding and agonist activity at the MCH-1R and MCH-2R was determined as described in Examples 2 and 3. Antagonist IC50 was determined as described in Example 4. Kb was determined using the procedures described in Trends in Pharmacol. Sci. 14:237-239, 1993.

human MCH-1R = human MCH-1R (Homo sapiens, UniProt Q99705); assay: MCH-1R binding assay, inhibition of [125I]-human MCH binding to membranes
rat MCH-1R [2] = target: T1, rat MCH-1R; assay: Aequorin bioluminescence functional assay, MCH-1R agonist activity; settings: for MCH-1R Agonist Activation %: 293-AEQ17 cells expressing rat MCH-1R

Sequence of human MCH-1R (Q99705 whole entry): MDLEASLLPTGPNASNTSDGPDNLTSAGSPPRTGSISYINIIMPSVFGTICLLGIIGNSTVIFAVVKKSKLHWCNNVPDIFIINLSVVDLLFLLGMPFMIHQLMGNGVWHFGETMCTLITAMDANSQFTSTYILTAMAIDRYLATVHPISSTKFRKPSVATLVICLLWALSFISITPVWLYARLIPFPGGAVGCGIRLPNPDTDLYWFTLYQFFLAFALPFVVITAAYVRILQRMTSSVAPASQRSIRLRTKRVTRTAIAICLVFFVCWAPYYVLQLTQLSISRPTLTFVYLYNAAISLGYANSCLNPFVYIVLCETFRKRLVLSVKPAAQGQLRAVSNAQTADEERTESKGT
Sequence of human MCH-2R (Q969V1 whole entry): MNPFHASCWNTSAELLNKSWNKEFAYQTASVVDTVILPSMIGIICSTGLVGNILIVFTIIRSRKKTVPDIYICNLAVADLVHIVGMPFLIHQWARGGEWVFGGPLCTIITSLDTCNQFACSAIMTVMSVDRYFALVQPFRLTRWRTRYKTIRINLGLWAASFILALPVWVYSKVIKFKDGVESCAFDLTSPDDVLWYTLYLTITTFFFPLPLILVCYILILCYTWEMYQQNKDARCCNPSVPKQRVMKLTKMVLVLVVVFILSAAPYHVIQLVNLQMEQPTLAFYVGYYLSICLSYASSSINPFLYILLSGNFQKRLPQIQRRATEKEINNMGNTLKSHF
T1 sequence (P97639 whole entry): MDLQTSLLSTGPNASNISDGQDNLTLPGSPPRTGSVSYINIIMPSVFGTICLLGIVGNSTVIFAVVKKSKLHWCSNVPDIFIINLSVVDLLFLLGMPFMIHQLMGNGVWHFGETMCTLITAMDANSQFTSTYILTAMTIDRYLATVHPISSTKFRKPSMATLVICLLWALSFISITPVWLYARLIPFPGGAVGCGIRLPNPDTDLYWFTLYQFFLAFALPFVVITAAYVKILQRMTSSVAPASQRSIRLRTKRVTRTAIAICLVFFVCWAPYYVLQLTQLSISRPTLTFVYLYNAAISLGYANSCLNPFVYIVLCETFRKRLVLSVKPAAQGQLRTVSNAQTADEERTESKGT

Row | Compound | EC50 (human MCH-2R) | MCH-2R Agonist Activation % (human MCH-2R) | IC50 (rat MCH-1R [1]) | Kb (rat MCH-1R [1]) | IC50 (human MCH-1R) | EC50 (rat MCH-1R [2]) | MCH-1R Agonist Activation % (rat MCH-1R [2])
1 | CSCC[C@@H]1NC(=O)[C@@H](NC(=O)[C@@H](CCCNC(=N)N)NC(C)=O)CSSC[C@@H](C(N)=O)NC(=O)CCCCNC(=O)CCCCNC(=O)[C@H](Cc2ccc(O)cc2)NC(=O)[C@H](C(C)C)NC(=O)[C@H](CCCNC(=N)N)NC(=O)CCCCNC(=O)CCCCNC1=O [SEQ. ID. NO. 33] (Ac-[dR]CM[Ava][Ava]RVY[Ava][Ava]C-NH2; disulfide 2-11 (inferred); C-terminus assumed) | > 10000 nM | 28% | 13.8 nM | 6 nM | 135 nM | > 10000 nM | 2%
2 | CCCC[C@@H]1NC(=O)[C@@H](NC(=O)CCCCNC(=N)N)CSSC[C@@H](C(N)=O)NC(=O)CCCCNC(=O)CCCCNC(=O)[C@H](Cc2ccc(O)cc2)NC(=O)[C@H](C(C)C)NC(=O)[C@H](CCCNC(=N)N)NC(=O)CNC(=O)[C@H](CC(C)C)NC1=O [SEQ. ID. NO. 16] ({Pentanoyl(5-guanidino)}-C[Nle]LGRVY[Ava][Ava]C-NH2; disulfide 1-10; C-terminus assumed) | > 10000 nM | 59% | 13.8 nM | 6 nM | 11 nM | > 10000 nM | 3%
3 | CCCC[C@H]1NC(=O)[C@H](CC(C)C)NC(=O)[C@H](CCSC)NC(=O)[C@@H](NC(=O)CCCCNC(=N)N)CSSC[C@@H](C(N)=O)NC(=O)CCCCNC(=O)CCCCNC(=O)[C@H](Cc2ccc(O)cc2)NC(=O)[C@H](C(C)C)NC(=O)[C@H](CCCNC(=N)N)NC1=O [SEQ. ID. NO. 27] ({Pentanoyl(5-guanidino)}-CML[dNle]RVY[Ava][Ava]C-NH2; disulfide 1-10; C-terminus assumed) | > 10000 nM | 91% | 5.4 nM | 2.4 nM | 28 nM | > 10000 nM | 3%
4 | CSCC[C@@H]1NC(=O)[C@@H](NC(=O)CCCCNC(=N)N)CSSC[C@@H](C(=O)O)NC(=O)CCCCNC(=O)CCCCNC(=O)[C@H](Cc2ccc(O)cc2)NC(=O)[C@H](C(C)C)NC(=O)[C@H](CCCNC(=N)N)NC(=O)CNC(=O)[C@H](CC(C)C)NC1=O [SEQ. ID. NO. 18] | > 10000 nM | 38% | 75.7 nM | 32.9 nM | 290 nM | > 10000 nM | 3.8%

Results, then the compound that gave them:

Row | EC50 (human MCH-2R) | MCH-2R Agonist Activation % (human MCH-2R) | IC50 (rat MCH-1R [1]) | Kb (rat MCH-1R [1]) | IC50 (human MCH-1R) | EC50 (rat MCH-1R [2]) | MCH-1R Agonist Activation % (rat MCH-1R [2]) | Compound
5 | > 10000 nM | 91% | 2.9 nM | 1.25 nM | 3 nM | > 10000 nM | 3% | CSCC[C@@H]1NC(=O)[C@@H](NC(=O)CCCCNC(=N)N)CSSC[C@@H](C(N)=O)NC(=O)CCCCNC(=O)CCCCNC(=O)[C@H](Cc2ccc(O)cc2)NC(=O)[C@H](C(C)C)NC(=O)[C@H](CCCNC(=N)N)NC(=O)CNC(=O)[C@H](CC(C)C)NC1=O [SEQ. ID. NO. 11]
6 | > 10000 nM | 45% | 67 nM | 29 nM | 140 nM | > 10000 nM |  | CC(C)C[C@@H]1NC(=O)[C@H](C)NC(=O)[C@@H](NC(=O)CCCCNC(=N)N)CSSC[C@@H](C(N)=O)NC(=O)CCCCNC(=O)CCCCNC(=O)[C@H](Cc2ccc(O)cc2)NC(=O)[C@H](C(C)C)NC(=O)[C@H](CCCNC(=N)N)NC(=O)CNC1=O [SEQ. ID. NO. 19] ({Pentanoyl(5-guanidino)}-CALGRVY[Ava][Ava]C-NH2; disulfide 1-10 (inferred); C-terminus assumed)
7 | > 10000 nM | 35% | 6.84 nM | 3 nM | 49 nM | > 10000 nM | 3.5% | CSCC[C@@H]1NC(=O)[C@@H](NC(=O)CCCCNC(=N)N)CSSC[C@@H](C(N)=O)NC(=O)CCCNC(=O)CCCNC(=O)[C@H](Cc2ccc(O)cc2)NC(=O)[C@H](C(C)C)NC(=O)[C@H](CCCNC(=N)N)NC(=O)CNC(=O)[C@H](CC(C)C)NC1=O [SEQ. ID. NO. 13]
